Measured values: patent publication US4772691A, “Chemically cleavable nucleotides” (The Medical College of Wisconsin, Inc., priority 1985, dated 1988)

Legend:
E. coli DNA polymerase I = E. coli DNA polymerase I (Escherichia coli, UniProt P00582); experiment: nick-translation reaction, incorporation of [32P]dCTP into 145-bp DNA; format: biochemical; conditions: for rate of nick-translation reaction relative to TTP: 20 μM nucleotide, relative to equal concentration of TTP
Experimental: Nick-Translation Reactions. Nucleosome length DNA fragments [145 base pairs (bp)]were purified from monomer nucleosomes prepared by micrococcal nuclease digestion of chicken erythrocyte nuclei followed by fractionation on an agarose A-5m column (2). Four microgram aliquots of 145-bp DNA fragments in 0.1 ml of 50 mM Tris-HCl, pH 7.5/5 mM MgCl2 /50 μg of bovine serum albumin per ml were nicktranslated (3) in the presence of 20 μM dATP and dGTP, 20 μM [^32 P]dCTP (2-5 μCi/nmol; 1 Ci =37 GBq), and either dTTP, Bio-4-dUTP, or Bio-SS-dUTP as indicated. 2-Mercaptoethanol was eliminated from the nick-translation buffer to preserve the Bio-SS-dUTP. DNase I (0.01 ng per 0.1 ml of reaction mixture) was added to the reaction, which was then incubated for 5 min at 15° C. prior to the addition of E. coli DNA polymerase I (4 units per 0.1 ml of reaction mixture).
Bio-SS-dUTP Is a Substrate for E. coli DNA Polymerase. To determine whether Bio-SS-dUTP could serve as a substrate for E. coli DNA polymerase I, its incorporation into DNA in a nick-translation reaction was measured. The incorporation of [^32 P ]dCTP into purified nucleosome-length DNA fragments (145 bp) in the presence of 20 μM dATP, dGTP, dCTP, and either the normal nucleotide, TTP, or one of three biotinylated nucleotide analogs was measured. Bio-SS-dUTP was capable of supporting the nick-translation reaction at 35%-40% the rate observed with an equal concentration of TTP. […] If no TTP is present with the biotinylated nucleotides in the nick-translation reaction, the newly synthesized DNA is very heavily biotinylated. To reduce this level of modification, the nick-translation reactions can be performed in the presence of μM/10TTP/10 μM Bio-SS-dUTP.

avidin = conditions: compared with avidin-biotin; cited from earlier work
[1] = HPLC of Bio-SS-dUTP in presence of 2-mercaptoethanol (disulfide cleavage); format: physicochemical; conditions: 5 mM 2-mercaptoethanol immediately before HPLC
Experimental: It was not necessary to further purify the AA-dUTP by HPLC at this stage in the synthesis. Instead, 2.0 μmol of AA-dUTP in 200 μl of 0.1 M sodium borate (pH 8.5) was added directly to 2.0 μmol of sulfo-NHS-SS-biotin. The reaction was allowed to proceed at room temperature for 1 to 2 hr. The resulting Bio-SS-dUTP was purified by ion-pair reversed-phase HPLC using a Bio-Sil ODS-5S column (250×4 mm; Bio-Rad). Aliquots of the reaction (100 μl) were adjusted to 50 mM Et3 NHCO3 (pH 7.5) and 10% acetonitrile, diluted to 500 μl with the same buffer, and applied to the column at a flow rate of 0.5 ml/min (1600 psi). Bio-SS-dUTP was eluted isocratically with 50 mM Et3 NHCO3 (pH 7.5) and 10% acetonitrile. Column fractions containing Bio-SS-dUTP were pooled, rotary evaporated, resuspended in 10 mM Tris HCl (pH 7.5); and stored at -80° C. From 2.0 μmol of AA-dUTP, 1.0-1.6 μmol of Bio-SS-dUTP can be obtained by this procedure.
An identical aliquot of the Bio-SS-dUTP reaction was supplemented with 2-mercaptoethanol to a final concentration of 5 mM immediately prior to its application and chromatography on HPLC. […] Instead, there was a corresponding increase in the material eluting from the column with the solvent breakthrough (3.3 min). […]

Sequence of E. coli DNA polymerase I (P00582 whole entry, the tested form may be a part): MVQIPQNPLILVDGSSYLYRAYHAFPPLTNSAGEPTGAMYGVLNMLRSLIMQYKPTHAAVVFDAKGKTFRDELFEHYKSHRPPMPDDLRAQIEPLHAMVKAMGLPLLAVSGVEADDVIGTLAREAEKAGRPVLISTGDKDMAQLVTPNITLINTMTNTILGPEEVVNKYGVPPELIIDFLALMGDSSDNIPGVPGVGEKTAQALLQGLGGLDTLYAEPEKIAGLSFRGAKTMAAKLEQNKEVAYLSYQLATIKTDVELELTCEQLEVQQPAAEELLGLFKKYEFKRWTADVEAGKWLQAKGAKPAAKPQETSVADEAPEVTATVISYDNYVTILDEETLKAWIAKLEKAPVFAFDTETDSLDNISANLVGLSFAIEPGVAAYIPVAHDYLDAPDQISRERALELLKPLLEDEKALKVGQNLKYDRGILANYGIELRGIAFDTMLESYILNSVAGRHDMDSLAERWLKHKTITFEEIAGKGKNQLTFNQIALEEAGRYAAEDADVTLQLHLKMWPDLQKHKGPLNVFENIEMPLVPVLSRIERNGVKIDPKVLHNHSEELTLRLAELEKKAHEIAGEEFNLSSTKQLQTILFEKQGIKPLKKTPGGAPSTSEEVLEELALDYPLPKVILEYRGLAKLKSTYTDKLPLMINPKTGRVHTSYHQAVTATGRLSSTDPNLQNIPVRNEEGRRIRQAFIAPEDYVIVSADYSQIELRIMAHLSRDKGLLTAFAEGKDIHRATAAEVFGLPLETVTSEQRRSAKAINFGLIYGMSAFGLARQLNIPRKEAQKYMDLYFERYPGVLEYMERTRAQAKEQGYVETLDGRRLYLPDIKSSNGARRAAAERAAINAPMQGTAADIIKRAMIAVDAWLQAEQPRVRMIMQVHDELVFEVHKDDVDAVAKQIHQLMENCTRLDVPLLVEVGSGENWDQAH

O=C(CCCC[C@@H]1SC[C@@H]2NC(=O)N[C@@H]21)NCC=Cc1cn([C@H]2C[C@H](O)[C@@H](COP(=O)(O)OP(=O)(O)OP(=O)(O)O)O2)c(=O)[nH]c1=O [Bio-4-dUTP, reference compound]
rate of nick-translation reaction relative to TTP (E. coli DNA polymerase I): 60%

N=C1N[C@H]2[C@H](CS[C@H]2CCCCC(=O)O)N1 [2-iminobiotin]
strength of avidin-iminobiotin interaction (avidin): not nearly as strong as that of avidin-biotin

O=C(CCSSCCNC(=O)CCCC[C@@H]1SC[C@@H]2NC(=O)N[C@@H]21)NCC=Cc1cn([C@H]2C[C@H](O)[C@@H](COP(=O)(O)OP(=O)(O)OP(=O)(O)O)O2)c(=O)[nH]c1=O [Bio-SS-dUTP]
rate of nick-translation reaction in mixture with TTP (E. coli DNA polymerase I; 10 μM TTP/10 μM Bio-SS-dUTP versus 20 μM TTP alone): only slightly slower
rate of nick-translation reaction relative to TTP (E. coli DNA polymerase I): 35%-40%
residues incorporated per nucleosome-length fragment (E. coli DNA polymerase I; nick-translated with equal concentrations of TTP and Bio-SS-dUTP): 2-5 residues per nucleosome-length fragment
substrate for E. coli DNA polymerase (E. coli DNA polymerase I; nick-translation): good substrate
intact compound after 2-mercaptoethanol (HPLC) [1]: no UV-absorbing material eluted from the column with the retention time expected for intact Bio-SS-dUTP
